Assay results taken from publication PMC11530689, “Anti colorectal cancer activity and in silico studies of novel pyridine nortopsentin analog as cyclin dependent kinase 6 inhibitor” (Scientific Reports, 2024).

How the values were obtained:
Experiment in all cases: NCI 60 cell line screen
SF-539 = format: cell-based; settings: SF-539, CNS Cancer; single concentration 10^−5 M
Procedure: (§1) The cytotoxic activity of nortopsintin analogs (4a-4j) was determined by the national cancer institute (NCI, Bethesda, Maryland, USA) against 60 different cancer cell lines at a single concentration of (10^-5 M). For the determination of IC50 value, we used MTT assay kit (Sigma) according to the manufacturer's protocol. HCT-116 cells were seeded into a 96-well plate at a concentration of 20,000 cells/well. After 24 h, the media was aspirated and replaced with serum-free media containing serial dilutions of the 4i compound. […] The percentage of cytotoxicity was calculated using the following equation: % Cytotoxicity = [1 - ([…])] × 100.

NCI-H226 = format: cell-based; settings: NCI-H226, Non-Small Cell Lung Cancer; single concentration 10^−5 M
Procedure: as §1

IGROV1 = format: cell-based; settings: IGROV1, Ovarian Cancer; single concentration 10^−5 M
Procedure: as §1

SNB-19 = format: cell-based; settings: SNB-19, CNS Cancer; single concentration 10^−5 M
Procedure: as §1

MALME-3M = format: cell-based; settings: Melanoma, single concentration 10^−5 M
Procedure: as §1

EKVX = format: cell-based; settings: Non-Small Cell Lung Cancer, single concentration 10^−5 M
Procedure: as §1

SK-MEL-2 = format: cell-based; settings: SK-MEL-2, Melanoma; single concentration 10^−5 M
Procedure: as §1

COLO205 = format: cell-based; settings: COLO205, Colon Cancer; single concentration 10^−5 M
Procedure: as §1

NCI-H460 = format: cell-based; settings: NCI-H460, Non-Small Cell Lung Cancer; single concentration 10^−5 M
Procedure: as §1

ACHN = format: cell-based; settings: Renal Cancer, single concentration 10^−5 M
Procedure: as §1

OVCAR-5 = format: cell-based; settings: OVCAR-5, Ovarian Cancer; single concentration 10^−5 M
Procedure: as §1

HCC-2998 = format: cell-based; settings: HCC-2998, Colon Cancer; single concentration 10^−5 M
Procedure: as §1

A498 = format: cell-based; settings: A498, Renal Cancer; single concentration 10^−5 M
Procedure: as §1

HOP-92 = format: cell-based; settings: HOP-92, Non-Small Cell Lung Cancer; single concentration 10^−5 M
Procedure: as §1

K-562 = format: cell-based; settings: K-562, Leukemia; single concentration 10^−5 M
Procedure: as §1

A549/ATCC = format: cell-based; settings: Non-Small Cell Lung Cancer, single concentration 10^−5 M
Procedure: as §1

HOP-62 = format: cell-based; settings: HOP-62, Non-Small Cell Lung Cancer; single concentration 10^−5 M
Procedure: as §1

786-0 = format: cell-based; settings: 786-0, Renal Cancer; single concentration 10^−5 M
Procedure: as §1

NCI-H322M = format: cell-based; settings: Non-Small Cell Lung Cancer, single concentration 10^−5 M
Procedure: as §1

SN12C = format: cell-based; settings: Renal Cancer, single concentration 10^−5 M
Procedure: as §1

HT29 = format: cell-based; settings: HT29, Colon Cancer; single concentration 10^−5 M
Procedure: as §1

SK-OV-3 = format: cell-based; settings: SK-OV-3, Ovarian Cancer; single concentration 10^−5 M
Procedure: as §1

SNB-75 = format: cell-based; settings: SNB-75, CNS Cancer; single concentration 10^−5 M
Procedure: as §1

CAKI-1 = format: cell-based; settings: CAKI-1, Renal Cancer; single concentration 10^−5 M
Procedure: as §1

MOLT-4 = format: cell-based; settings: MOLT-4, Leukemia; single concentration 10^−5 M
Procedure: as §1

MDA-MB-231/ATCC = format: cell-based; settings: Breast Cancer, single concentration 10^−5 M
Procedure: as §1

CCRF-CEM = format: cell-based; settings: Leukemia, single concentration 10^−5 M
Procedure: as §1

T-47D = format: cell-based; settings: Breast Cancer, single concentration 10^−5 M
Procedure: as §1

MCF7 = format: cell-based; settings: MCF7, Breast Cancer; single concentration 10^−5 M
Procedure: as §1

RXF 393 = format: cell-based; settings: RXF 393, Renal Cancer; single concentration 10^−5 M
Procedure: as §1

HL-60 (TB) = format: cell-based; settings: Leukemia, single concentration 10^−5 M
Procedure: as §1

NCI/ADR-RES = format: cell-based; settings: Ovarian Cancer, single concentration 10^−5 M
Procedure: as §1

OVCAR-8 = format: cell-based; settings: OVCAR-8, Ovarian Cancer; single concentration 10^−5 M
Procedure: as §1

KM12 = format: cell-based; settings: KM12, Colon Cancer; single concentration 10^−5 M
Procedure: as §1

M14 = format: cell-based; settings: M14, Melanoma; single concentration 10^−5 M
Procedure: as §1

SK-MEL-5 = format: cell-based; settings: SK-MEL-5, Melanoma; single concentration 10^−5 M
Procedure: as §1

SW-620 = format: cell-based; settings: SW-620, Colon Cancer; single concentration 10^−5 M
Procedure: as §1

HCT-116 = format: cell-based, human; settings: HCT-116, Colon Cancer; single concentration 10^−5 M
Procedure: as §1

N#Cc1c(-c2ccccc2)cc(-c2c[nH]c3ccccc23)nc1-c1c[nH]c2ccccc12 [4a]
Growth % (SF-539): 98.60% | Growth % (NCI-H226): 89.89% | Growth % (IGROV1): 82.09% | Growth % (SNB-19): 97.62% | Growth % (MALME-3M): 99.77% | Growth % (EKVX): 83.07% | Growth % (SK-MEL-2): 97.65% | Growth % (COLO205): 108.26% | Growth % (NCI-H460): 106.27% | Growth % (ACHN): 96.37% | Growth % (OVCAR-5): 103.05% | Growth % (HCC-2998): 93.57% | Growth % (A498): 98.67% | Growth % (HOP-92): 92.10% | Growth % (K-562): 100.60% | Growth % (A549/ATCC): 98.73% | Growth % (HOP-62): 92.66% | Growth % (786-0): 102.19% | Growth % (NCI-H322M): 105.41% | Growth % (SN12C): 95.61% | Growth % (HT29): 102.69% | Growth % (SK-OV-3): 93.31% | Growth % (SNB-75): 81.21% | Growth % (CAKI-1): 87.26% | Growth % (MOLT-4): 102.45% | Growth % (MDA-MB-231/ATCC): 92.64% | Growth % (CCRF-CEM): 102.65% | Growth % (T-47D): 86.69% | Growth % (MCF7): 94.97% | Growth % (RXF 393): 94.99% | Growth % (HL-60 (TB)): 103.72% | Growth % (NCI/ADR-RES): 98.30% | Growth % (OVCAR-8): 98.73% | Growth % (KM12): 102.51% | Growth % (M14): 100.81% | Growth % (SK-MEL-5): 99.18% | Growth % (SW-620): 101.78% | Growth % (HCT-116): 103.11%

COc1ccc(-c2cc(-c3c[nH]c4ccccc34)nc(-c3c[nH]c4ccccc34)c2C#N)cc1 [4e]
Growth % (SF-539): 93.61% | Growth % (NCI-H226): 92.14% | Growth % (IGROV1): 85.18% | Growth % (SNB-19): 102.42% | Growth % (MALME-3M): 113.82% | Growth % (EKVX): 91.11% | Growth % (SK-MEL-2): 100.09% | Growth % (COLO205): 102.89% | Growth % (NCI-H460): 107.18% | Growth % (ACHN): 95.12% | Growth % (OVCAR-5): 103.69% | Growth % (HCC-2998): 128.75% | Growth % (A498): 108.69% | Growth % (HOP-92): 82.07% | Growth % (K-562): 96.99% | Growth % (A549/ATCC): 99.97% | Growth % (HOP-62): 90.00% | Growth % (786-0): 102.90% | Growth % (NCI-H322M): 108.08% | Growth % (SN12C): 99.19% | Growth % (HT29): 105.49% | Growth % (SK-OV-3): 94.59% | Growth % (SNB-75): 97.63% | Growth % (CAKI-1): 84.47% | Growth % (MOLT-4): 94.10% | Growth % (MDA-MB-231/ATCC): 102.65% | Growth % (CCRF-CEM): 101.65% | Growth % (T-47D): 86.61% | Growth % (MCF7): 90.48% | Growth % (RXF 393): 94.44% | Growth % (HL-60 (TB)): 106.85% | Growth % (NCI/ADR-RES): 108.38% | Growth % (OVCAR-8): 98.49% | Growth % (KM12): 96.65% | Growth % (M14): 93.75% | Growth % (SK-MEL-5): 97.12% | Growth % (SW-620): 113.43% | Growth % (HCT-116): 106.07%

N#Cc1c(-c2ccc(Cl)cc2)cc(-c2c[nH]c3ccccc23)nc1-c1c[nH]c2ccccc12 [4c]
Growth % (SF-539): 98.85% | Growth % (NCI-H226): 96.15% | Growth % (IGROV1): 91.10% | Growth % (SNB-19): 101.34% | Growth % (MALME-3M): 107.80% | Growth % (EKVX): 87.50% | Growth % (SK-MEL-2): 103.64% | Growth % (COLO205): 106.5% | Growth % (NCI-H460): 106.15% | Growth % (ACHN): 101.81% | Growth % (OVCAR-5): 105.15% | Growth % (HCC-2998): 117.80% | Growth % (A498): 97.38% | Growth % (HOP-92): 99.01% | Growth % (K-562): 97.57% | Growth % (A549/ATCC): 100.29% | Growth % (HOP-62): 93.62% | Growth % (786-0): 102.38% | Growth % (NCI-H322M): 103.02% | Growth % (SN12C): 97.84% | Growth % (HT29): 107.41% | Growth % (SK-OV-3): 91.24% | Growth % (SNB-75): 100.87% | Growth % (CAKI-1): 87.84% | Growth % (MOLT-4): 99.33% | Growth % (MDA-MB-231/ATCC): 97.80% | Growth % (CCRF-CEM): 101.97% | Growth % (T-47D): 100.54% | Growth % (MCF7): 89.99% | Growth % (RXF 393): 114.27% | Growth % (HL-60 (TB)): 102.90% | Growth % (NCI/ADR-RES): 98.53% | Growth % (OVCAR-8): 101.97% | Growth % (KM12): 102.73% | Growth % (M14): 102.44% | Growth % (SK-MEL-5): 99.39% | Growth % (SW-620): 106.55% | Growth % (HCT-116): 106.26%

N#Cc1c(-c2ccc(O)cc2)cc(-c2c[nH]c3ccccc23)nc1-c1c[nH]c2ccccc12 [4j]
Growth % (SF-539): 66.62% | Growth % (NCI-H226): 86.10% | Growth % (IGROV1): 76.43% | Growth % (SNB-19): 108.35% | Growth % (MALME-3M): 114.20% | Growth % (EKVX): 100.08% | Growth % (SK-MEL-2): 100.11% | Growth % (COLO205): 111.37% | Growth % (NCI-H460): 103.74% | Growth % (ACHN): 72.15% | Growth % (OVCAR-5): 108.44% | Growth % (HCC-2998): 126.05% | Growth % (A498): 110.66% | Growth % (HOP-92): 125.42% | Growth % (K-562): 67.98% | Growth % (A549/ATCC): 105.12% | Growth % (HOP-62): 94.38% | Growth % (786-0): 101.37% | Growth % (NCI-H322M): 101.04% | Growth % (SN12C): 95.63% | Growth % (HT29): 111.48% | Growth % (SK-OV-3): 96.54% | Growth % (SNB-75): 90.85% | Growth % (CAKI-1): 90.60% | Growth % (MOLT-4): 87.60% | Growth % (MDA-MB-231/ATCC): 92.33% | Growth % (CCRF-CEM): 76.51% | Growth % (T-47D): 98.31% | Growth % (MCF7): 87.55% | Growth % (RXF 393): 83.24% | Growth % (HL-60 (TB)): 107.76% | Growth % (NCI/ADR-RES): 102.41% | Growth % (OVCAR-8): 99.60% | Growth % (KM12): 96.89% | Growth % (M14): 100.26% | Growth % (SK-MEL-5): 84.85% | Growth % (SW-620): 108.39% | Growth % (HCT-116): 105.38%
